This note sets out measurements from patent publication US10391095B2, “DNA-PK inhibitors” (Vertex Pharmaceuticals Incorporated, priority 2012, dated 2019).

The assay addresses DNA-PK (Homo sapiens, UniProt P78527). In words: DNA-PK inhibition assay (radiometric, 33P-ATP). In kind it is biochemical. The settings on record: 100 μM ATP, competitive tight-binding fit. The essentials: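 33P transfer from 100 µM ATP to a DNA-PK peptide (0.8 mg/mL) is measured after 45 min, using about 6 nM enzyme activated by 10 µg/mL sheared dsDNA (HEPES pH 7.5, MgCl2, DTT). Filter-bound counts fitted to a competitive tight-binding inhibition model give Ki.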

A word on the Ki: it is the dissociation constant of the complex between target and ligand, obtained from inhibition or displacement. High values mean lower affinity, low ones higher affinity. `COc1cc(C(=O)Nc2ccccc2)ccc1C(C)CNc1cc(-c2ccc(C)nc2)ncn1` (centres unmarked) [Compound 377] came in with a Ki of less than 30 nM. The figure for `COc1cc(C=O)ccc1C(C)CNc1cc(-c2ccc(C)nc2)ncn1` (centres unmarked) [Compound 378] is less than 30 nM; for `CC(CNc1cc(-c2cnc3c(cnn3CCO)c2)ncn1)c1cc(F)c(F)cc1OC1CCC1` (centres unmarked) [Compound 382] it is less than 30 nM. Regarding `C#CCNc1ccc(-c2cc(NC[C@@H](C)c3ccc(C(=O)NC)cc3OC)ncn2)cn1` [Compound 385], the Ki was less than 30 nM. Consider `C=CCNc1ccc(-c2cc(NC[C@@H](C)c3ccc(C(=O)NC)cc3OC)ncn2)cn1` [Compound 387], for which the Ki is less than 30 nM.

As for `CNC(=O)c1ccc([C@H](C)CNc2cc(-c3ccc(NC4CC4)nc3)ncn2)c(OC)c1` [Compound 388], the Ki was less than 30 nM. The figure for `C=C(C)CNc1ccc(-c2cc(NC[C@@H](C)c3ccc(C(=O)NC)cc3OC)ncn2)cn1` [Compound 389] is less than 30 nM; for `CNC(=O)c1ccc([C@H](C)CNc2cc(-c3ccc(NCC(F)F)nc3)ncn2)c(OC)c1` [Compound 390] it is less than 30 nM. `CNC(=O)c1ccc([C@H](C)CNc2cc(-c3ccc(N4CCC4)nc3)ncn2)c(OC)c1` [Compound 395] returned a Ki of less than 30 nM.

For the compound `CNC(=O)c1ccc([C@H](C)CNc2cc(-c3ccc(Nc4ccncc4)nc3)ncn2)c(OC)c1` [Compound 396], the Ki was less than 30 nM. As for `Cc1ccc(-c2cc(NCC(C)c3cccc4nsnc34)ncn2)cn1` (centres unmarked) [Compound 398], the Ki was less than 30 nM.

`CC(CNc1cc(-c2cnc3c(cnn3CCO)c2)ncn1)c1csc2cccnc12` (centres unmarked) [Compound 399] had a Ki of less than 30 nM. As to `CC(CNc1cc(-c2cnc3c(cnn3CCO)c2)ncn1)c1ccnc2cccnc12` (centres unmarked) [Compound 400], the Ki is less than 30 nM. In the case of `CC(CNc1cc(-c2cnc3c(cnn3CCO)c2)ncn1)c1cccc2nccnc12` (centres unmarked) [Compound 401], the Ki is less than 30 nM.

`CC(CNc1cc(-c2cnc3c(cnn3CCO)c2)ncn1)c1cccc2scnc12` (centres unmarked) [Compound 402] displayed a Ki of less than 30 nM. Consider `COc1cc(C(=O)NCC(F)F)ccc1[C@H](C)CNc1cc(-c2ccc(C)nc2)ncn1` [Compound 405], for which the Ki was less than 30 nM. For `Cc1ccc(-c2cc(NCC(C)c3cncc4nccnc34)ncn2)cn1` (centres unmarked) [Compound 407], the Ki was less than 30 nM. On to `CNc1ccccc1[C@H](C)CNc1cc(-c2ccc(C(=O)NCCC#N)nc2)ncn1` [Compound 408], for which the Ki is less than 30 nM. For the compound `Cc1ccc(-c2cc(NCC(C)c3cncc4cccnc34)ncn2)cn1` (centres unmarked) [Compound 414], the Ki is less than 30 nM. With `Cc1ncc(-c2cc(NC[C@@H](C)c3ccnc4c3OCC4)ncn2)cn1` [Compound 416], the Ki is less than 30 nM. Consider `C[C@H](CNc1cc(-c2cnc3c(cnn3C3COC3)c2)ncn1)c1ccnc2c1OCC2` [Compound 417], for which the Ki was less than 30 nM. Compound `CC(CNc1cc(-c2cnc3c(cnn3CCO)c2)ncn1)c1cncc2c1OCC2` (centres unmarked) [Compound 419] registered a Ki of less than 30 nM. In the case of `CC(CNc1cc(-c2cnc3c(cnn3C3COC3)c2)ncn1)c1cncc2c1OCC2` (centres unmarked) [Compound 420], the Ki is less than 30 nM. The figure for `COc1cc(Br)ccc1C(C)CNc1cc(-c2ccc(C)nc2)ncn1` (centres unmarked) [Compound 423] is less than 30 nM; for `CC(CNc1cc(-c2cnc3c(cnn3CCO)c2)ncn1)c1ccnc2ccoc12` (centres unmarked) [Compound 429] it is less than 30 nM; for `CNc1ncc(-c2cc(NC[C@@H](C)c3ccnc4c3OCC4)ncn2)cn1` [Compound 430] it is less than 30 nM. `CC(CNc1cc(-c2ccc(C(=O)NCCC#N)cc2)ncn1)c1ccnc2cccnc12` (centres unmarked) [Compound 431] came in with a Ki of less than 30 nM. With `C[C@H](CNc1cc(-c2ccc(C(=O)NCCC#N)cc2)ncn1)c1ccnc2c1OCC2` [Compound 432], the Ki is less than 30 nM. Take `Cc1ccc(-c2cc(NCC(C)c3cccc4nc(C)c(C)nc34)ncn2)cn1` (centres unmarked) [Compound 434]: the Ki was less than 30 nM.

As to `Cc1ccc(-c2cc(NCC(C)c3cccc4c3OCC(=O)N4)ncn2)cn1` (centres unmarked) [Compound 435], the Ki was less than 30 nM. For the compound `C[C@H](CNc1cc(-c2cnc3[nH]ncc3c2)ncn1)c1ccnc2c1OCC2` [Compound 437], the Ki is less than 30 nM. `C[C@H](CNc1cc(-c2cnc3c(cnn3C)c2)ncn1)c1ccnc2c1OCC2` [Compound 438] registered a Ki of less than 30 nM. `CNC(=O)c1ccc(C(C)CNc2cc(-c3cnc4c(cnn4CC#N)c3)ncn2)c(OC)c1` (centres unmarked) [Compound 441] showed a Ki of less than 30 nM. The compound `CNC(=O)c1ccc(C(C)CNc2cc(-c3cnc4c(cnn4CCC#N)c3)ncn2)c(OC)c1` (centres unmarked) [Compound 442] yielded a Ki of less than 30 nM. Take `CC(CNc1cc(-c2cnc3c(cnn3CCO)c2)ncn1)c1ccnc2c1OCCO2` (centres unmarked) [Compound 444]: the Ki is less than 30 nM. Next, `Cc1ccc(-c2cc(NC[C@@H](C)c3cccc4nccnc34)ncn2)cn1` [Compound 445]: less than 30 nM.

The compound `Cc1ccc(-c2cc(NCC(C)c3cccc4c3OCCO4)ncn2)cn1` (centres unmarked) [Compound 447] gave a Ki of less than 30 nM. The figure for `CNC(=O)c1ccc(C(C)CNc2cc(-c3cn(C4COC4)c4ncc(F)cc34)ncn2)c(OC)c1` (centres unmarked) [Compound 449] is less than 30 nM; for `Cc1ccc(-c2cc(NCC(C)c3cncc4c3OCCC4)ncn2)cn1` (centres unmarked) [Compound 451] it is less than 30 nM.

With `CC(CNc1cc(-c2cnc3c(cnn3CCO)c2)ncn1)c1cncc2c1OCCC2` (centres unmarked) [Compound 452], the Ki was less than 30 nM. In turn, `C=C(CNc1cc(-c2ccc(C)nc2)ncn1)c1cnc(N)nc1OC` [Compound 453] yielded a Ki of less than 30 nM. Consider `CNC(=O)c1ccc([C@H](C)CNc2cc(-c3ccc4ncccc4c3)ncn2)c(OC)c1` [Compound 454], for which the Ki is less than 30 nM.

`CC(=O)c1ccc(-c2cc(NC[C@@H](C)c3ccnc4c3OCCO4)ncn2)cc1` [Compound 456]: the Ki is less than 30 nM.

In the case of `C[C@H](CNc1cc(-c2cnc(NCCO)nc2)ncn1)c1ccnc2c1OCCO2` [Compound 457], the Ki was less than 30 nM. Next, `COCc1ccc(-c2cc(NC[C@@H](C)c3ccnc4c3OCCO4)ncn2)cc1` [Compound 458]: less than 30 nM; `C[C@H](CNc1cc(-c2ccc(N)nc2)ncn1)c1ccnc2c1OCCO2` [Compound 459]: less than 30 nM; `C[C@H](CNc1cc(-c2ccc(N(C)C)nc2)ncn1)c1ccnc2c1OCCO2` [Compound 460]: less than 30 nM. `CNc1ncc(-c2cc(NC[C@@H](C)c3ccnc4c3OCCO4)ncn2)cn1` [Compound 462, (S)—N^6-(2-(2,3-dihydro-[1,4]dioxino[2,3-b]pyridin-8-yl)propyl)-N^2′-methyl-[4,5′-bipyrimidine]-2′,6-diamine] yielded a Ki of less than 30 nM. For `C[C@H](CNc1cc(-c2ccc3ncccc3c2)ncn1)c1ccnc2c1OCCO2` [Compound 464], the Ki is less than 30 nM. Next, `C[C@H](CNc1cc(-c2ccc(NC3CC3)nc2)ncn1)c1ccnc2c1OCCO2` [Compound 465]: less than 30 nM; `COc1ccc(C(C)CNc2cc(-c3ccc(C)nc3)ncn2)c(OC)n1` (centres unmarked) [Compound 466]: less than 30 nM; `C=C(CNc1cc(-c2ccc(C)nc2)ncn1)c1cccc2c(C(=O)NC)ccnc12` [Compound 467]: less than 30 nM. On to `CNCCNc1ccc(-c2cc(NC[C@@H](C)c3ccc(C(=O)NC)cc3OC)ncn2)cn1` [Compound 469], for which the Ki was less than 30 nM.
